Key:
[1] = system: histones; assay: In-vivo histone toxicity assay; settings: mice; for Relative potency in protecting from histone-induced tissue pathologies / Protection from histone-induced liver damage, generalised tissue injury and kidney failure (circulating ALT, LDH, creatinine): FIG. 6a; for Protection from histone-induced liver damage, generalised tissue injury and kidney failure (circulating ALT, LDH, creatinine): compound i.p. 10 min prior to i.v. histones 50 mg kg^−1, blood 4 h post-histones, concentration-dependent
Description: In-vivo histone toxicity assays. BALB/c female mice (5-6 weeks of age), that are more prone to histone-induced anemia and easier to inject i.v. at this young age than C57BL/6 mice, were injected i.p. with test compounds at concentrations indicated 10 min prior to i.v. injection of histones (50 mg kg^−1) in phosphate buffered saline. Retro-orbital bleeds were performed with glass Pasteur pipettes 10 min after histone injection and collected blood added to acid citrate dextrose (ACD), the 10 min blood sample being subjected to hematologic analyses for platelet and erythrocyte content using an ADVIA 2120i Hematology Analyzer. Spleens were also harvested at 10 min post-histone injection and splenic hemoglobin content quantified using a hemoglobin assay kit (Sigma-Aldrich). In the case of 4 h blood samples, male C57/BL/6 mice (6-8 weeks of age) were injected with test compounds and histones as above and plasma isolated and stored frozen for subsequent biochemical testing, with markers for liver (alanine aminotransferase, ALT), kidney (creatinine, Crea) and general tissue (lactate dehydrogenase, LDH) damage being determined by the Department of Pathology, The Canberra Hospital.

[2] = system: histones; assay: Murine histone-induced deep vein thrombosis (DVT) model; type: in vivo; settings: mice, histones 10 mg kg^−1 i.v., compound 50 mg kg^−1 i.v., 48 h, FIG. 6c
Description: Murine deep vein thrombosis (DVT) model. The procedure used is largely as previously described (Brill, A. et al. Neutrophil extracellular traps promote deep vein thrombosis in mice. J Thromb Haemost 10, 136-144 (2012)). […] The peritoneum and skin were closed following which all mice received an i.v. injection of histones via the tail vein (10 mg kg^−1) or an equivalent volume of saline followed 5 min later by an i.v. injection of test compounds (50 mg kg^−1) or saline. Mice were monitored for 48 h after which they were re-anesthetized, re-opened and any thrombi that had developed distal to the IVC stenosis were removed for analysis. Sham operated control animals received laparotomy and 90% ligation of the IVC, however the ligation was removed immediately after occlusion of the IVC.

[3] = Rat caecal ligation and puncture (CLP) assay for sepsis; type: in vivo; settings: for Mortality in CLP model of sepsis: rats n=8/group, 50 mg kg^−1 i.p. 5 min pre-CLP and 5, 10, 15 h post-op, 20 h, FIG. 7a; for High ALT and creatinine levels (liver and kidney damage) in CLP rats: 50 mg kg^−1 i.p., versus untreated group, FIG. 7b
Description: Rat caecal ligation and puncture (CLP) assay for sepsis. […] Test compounds (50 mg kg^−1) dissolved in saline or an equivalent volume of saline only (Control cohort) were administered i.p. 5 min pre-CLP and 5, 10 and 15 h post-op until cessation of the experiment at 20 h. Sham-CLP rats underwent the same procedure, however, the caecum was not ligated or punctured and these rats received saline at the same times as above. At the conclusion of the experimental time period (20 h) or when morbidity required ethical euthanasia, the rats were anaesthetized and blood was collected via cardiac puncture into EDTA for subsequent analysis of liver (ALT) and kidney (creatinine) function by the Department of Pathology, The Canberra Hospital.

[4] = system: anti-proliferative effect of sepsis patients sera on HMEC-1; type: cell-based, human; settings: HMEC-1, test compounds 200 μg ml^−1, FIG. 9d
Description: Detection and analysis of cytotoxicity of septic patient sera for endothelial cells. To measure the cytotoxic activity of septic patients sera for endothelial cells in-vitro, HMEC-1 were seeded into 96-well plates at 2.5×10^4 well^−1 in medium and grown at 37° C. in 5% CO2 for 48 h prior to the addition of 50 μl of patient serum in the presence/absence of DNase I (10 μg ml^−1), anti-human histone 3 and histone 4 rabbit pAbs (200 μg ml^−1) (BioVision), or test compounds (200 μg ml^−1) and incubated for 3 h. ^3H-thymidine (0.5 μCi, MP Biomedical) was then added to each culture well in 20 μl of HMEC-1 medium and incubated for a further 24 h. At the conclusion of the incubation period plates were subjected to 3 freeze/thaw cycles (−70° C. for 30 min, then 37±0.5° C. for 30 min) prior to harvesting and measurement of ^3H-thymidine incorporation. […] Filters were dried at 80° C. and placed in Omnifilter plates (Perkin Elmer) then 20 μl of Microscint-O scintillation fluid (Perkin Elmer) was added to each well and the plate sealed with TopSeal-A adhesive film (Perkin Elmer). ^3H-thymidine incorporation was measured using a TopCount NXT™ Microplate Scintillation and Luminescence Counter (Packard Bioscience). Results expressed as a percentage of the proliferation of HMEC-1 not exposed to patient sera.

SMILES	Relative potency in protecting from histone-induced tissue pathologies [1]	Protection from histone-induced liver damage, generalised tissue injury and kidney failure (circulating ALT, LDH, creatinine) [1]	Inhibition of histone-mediated DVT [2]	Mortality in CLP model of sepsis [3]	High ALT and creatinine levels (liver and kidney damage) in CLP rats [3]	Effect on anti-proliferative activity of the 10 most inhibitory septic patient sera [4]	Histone-induced thrombocytopenia and anaemia ([1]; 100 mg kg^−1 i.p., 10 min post-histones, FIG. 6b)
O=S(=O)(O)OC[C@H]1O[C@@H](O[C@H]2[C@H](OS(=O)(=O)O)[C@@H](OS(=O)(=O)O)C(OS(=O)(=O)O)O[C@@H]2COS(=O)(=O)O)[C@H](OS(=O)(=O)O)[C@@H](OS(=O)(=O)O)[C@@H]1OS(=O)(=O)O (stereo partly shown) [CBS, cellobiose per-O-sulfate]	equally active	protected	almost totally inhibited	no mortality	not seen	significantly overrode	
O=S(=O)(O)OC[C@H]1O[C@H](O[C@H]2[C@H](OS(=O)(=O)O)[C@@H](OS(=O)(=O)O)C(OS(=O)(=O)O)O[C@@H]2COS(=O)(=O)O)[C@H](OS(=O)(=O)O)[C@@H](OS(=O)(=O)O)[C@@H]1O[C@H]1O[C@H](COS(=O)(=O)O)[C@@H](OS(=O)(=O)O)[C@H](OS(=O)(=O)O)[C@H]1OS(=O)(=O)O (stereo partly shown) [MTS, maltotriose per-O-sulfate]	most potent	protected	almost totally inhibited	only one death	only partially reduced	did not	prevented
